Tests used:
PxylOR16/PxylOrco [1] = target: T1, PxylOR16/PxylOrco (Plutella xylostella, UniProt V9SFT8); experiment: two-electrode voltage clamp, Xenopus oocytes; format: cell-based; details: agonist, co-expressed with PxylOrco, holding potential -80 mV, Ringer's buffer
T1 construct: no tag stated; with Odorant receptor coreceptor
T1 sequence (V9SFT8 1-405): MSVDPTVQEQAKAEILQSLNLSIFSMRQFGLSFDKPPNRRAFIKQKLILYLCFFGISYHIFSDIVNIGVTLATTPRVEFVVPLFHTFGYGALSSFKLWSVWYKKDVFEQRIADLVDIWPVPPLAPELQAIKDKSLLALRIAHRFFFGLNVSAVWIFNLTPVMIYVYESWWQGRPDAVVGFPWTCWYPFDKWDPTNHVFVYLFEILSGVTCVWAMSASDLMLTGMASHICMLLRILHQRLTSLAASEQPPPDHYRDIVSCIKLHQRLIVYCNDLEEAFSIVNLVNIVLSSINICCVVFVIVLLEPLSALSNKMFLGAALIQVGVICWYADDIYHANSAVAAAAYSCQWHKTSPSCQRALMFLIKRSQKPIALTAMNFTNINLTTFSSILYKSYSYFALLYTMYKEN
T1 sequence (D0EZE1 1-471 partner): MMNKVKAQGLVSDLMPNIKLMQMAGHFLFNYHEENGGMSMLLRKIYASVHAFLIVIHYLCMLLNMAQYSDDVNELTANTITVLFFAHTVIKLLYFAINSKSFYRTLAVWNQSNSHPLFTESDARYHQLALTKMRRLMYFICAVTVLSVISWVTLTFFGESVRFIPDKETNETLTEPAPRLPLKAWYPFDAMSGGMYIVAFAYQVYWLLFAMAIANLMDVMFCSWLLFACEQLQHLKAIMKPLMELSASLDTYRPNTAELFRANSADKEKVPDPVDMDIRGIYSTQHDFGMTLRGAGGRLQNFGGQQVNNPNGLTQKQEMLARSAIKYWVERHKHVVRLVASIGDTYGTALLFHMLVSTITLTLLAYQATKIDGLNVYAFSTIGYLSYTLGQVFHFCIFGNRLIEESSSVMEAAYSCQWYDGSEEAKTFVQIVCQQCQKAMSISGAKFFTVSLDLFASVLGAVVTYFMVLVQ

PxylOR16/PxylOrco [2] = target: T1, PxylOR16/PxylOrco; experiment: two-electrode voltage clamp, Xenopus oocytes; format: cell-based

With CCCCCCCO [1-heptanol] the “inward current response at 10^-4 M” value (PxylOR16/PxylOrco [1]) was “they also responded weakly to two other volatiles (octyl acetate and 1-heptanol)”.

Work on CCCCCCC=O [heptanal] yielded an EC50 (PxylOR16/PxylOrco [2]) of 17.6 µM.

With CCCCCCCCOC(C)=O [octyl acetate] the “inward current response at 10^-4 M” value (PxylOR16/PxylOrco [1]; weak agonist, 10^-4 M) was “they also responded weakly to two other volatiles (octyl acetate and 1-heptanol)”.
